# Data from patent publication US12559725B2, “Formulation comprising extracellular vesicles, method for producing the same, and uses thereof” (MacKay Memorial Hospital, priority 2018, dated 2026).
# What was measured:
# U937 myeloid cells = assay: Reactive oxygen species in PMA-stimulated U937 myeloid cells (DCFH flow cytometry); format: cell-based; conditions: EVs 0.15 mg/ml, curcumin 0.8 mM, 30 minutes, vs medium only
# Procedure: The U937 myeloid cells were seeded in 24-well plate at a density of 8×10^4 cells/well (in 0.4 ml) followed by the stimulation of 100 nM PMA (phorbol myristate acetate) at 37° C., 5% CO2 incubator for 48 hours. The cells were washed with PBS twice before adding medium with and without ucMSC-naive-EVs (0.15 mg/ml), curcumin (Cur, 0.8 mM) or EV-curcumin (Cur/EVs, 0.8 mM) for 30 minutes. The reactions were incubated with DCFH ([…]) at 1 uM for 20 minutes before flow cytometric analysis of H2O2-mediated fluorescence at 480 nm emission.
# [1] = system: cisplatin-induced hearing loss; assay: Cisplatin-induced hearing loss mouse model (ABR, organ of Corti explants); format: in vivo, C57BL/6 mice; conditions: intraperitoneal 0.1 ml day 1 to day 5; ABR threshold at 12 kHz, 10 days post-treatment
# Procedure: In a mouse model of hearing loss, the inner cell damage was induced by administering to C57BL/6 mice 4 mg/kg cisplatin daily for 5 consecutive days, in which the mice were intraperitoneally treated with 0.1 ml PBS (serving as the negative control group), 0.1 ml ucMSC-naive-EVs or 0.1 ml EV-curcumin (about 120 ug protein of EVs, 2.2×10^11 to 2.8×10^11 vesicles) from day 1 to day 5. The protecting effect of ucMSC-naive-EVs and EV-curcumin was assessed by analyzing the cell number and function of the inner ear cells. To assess the protecting effect of the present EV formulation on hearing loss and inner ear cell death, auditory brain response (ABR) threshold at 12 kHz and immunofluorescence images of organ of Corti explants were measured 10 days post-treatment. To obtain the ucMSC-EVs preparations with and without curcumin incorporation enough for the animal study requiring a larger amount of EVs for daily intraperitoneal injection, the ucMSC-EVs in paired formulations with and without curcumin incorporation were prepared and stored at −80° C. for at least 3 months. To make sure homogeneous application of ucMSC-EV to each mouse, different batches of EVs were thawed and mixed for the experiment right before the animal study. One-way ANOVA with Duncan post hoc test was performed when compared with the control or cisplatin group.
# [2] = system: mouse model of anti-aging; assay: D-galactose aging mouse model, Morris water maze; format: in vivo, BALB/c mice; conditions: D-galactose 6 weeks, then intraperitoneal three times a week for 3 weeks
# Procedure: In a mouse model of anti-aging, BALB/c mice were subcutaneously treated with 100 mg/kg D-galactose every day for 6 consecutive weeks. Then, the mice were intraperitoneally administered with 0.1 ml PBS (serving as the negative control group), 0.1 ml curcumin (1 μM), 0.1 ml ucMSC-naive-EVs, 0.1 ml EV-curcumin (about 120 ug protein of EVs, 2.2×10^11 vesicles), or 5 mg/kg β-lapachone three times a week for 3 weeks after 6 weeks of aging induction and the pre-test of cognition assessment. The anti-aging effect of ucMSC-naive-EVs and EV-curcumin was then assessed by the cognition ability in Morris water maze model.
structure (smiles),measurement,setting,value
COc1cc(/C=C/C(=O)CC(=O)/C=C/c2ccc(O)c(OC)c2)ccc1O [curcumin],production of reactive oxygen species (H2O2-mediated fluorescence),U937 myeloid cells,significantly decreased the production of reactive oxygen species
same,cisplatin-induced hearing loss (ABR),[1],not curcumin alone
same,"time to reach the safety island (escape latency), Morris water maze",[2],obviously reduced the time to reach the safety island
CC1(C)CCC2=C(O1)c1ccccc1C(=O)C2=O [β-lapachone],"time to reach the safety island (escape latency), Morris water maze",[2],obviously reduced the time to reach the safety island
